The assay deals with T1, RORγ receptor (Homo sapiens, UniProt P51449).
T1 construct: Jurkat pEx/Gal/hRORγ CLBD/HYG pG51uc/blast; expressed in transfected cells
T1 sequence (P51449 269-508 limits assumed): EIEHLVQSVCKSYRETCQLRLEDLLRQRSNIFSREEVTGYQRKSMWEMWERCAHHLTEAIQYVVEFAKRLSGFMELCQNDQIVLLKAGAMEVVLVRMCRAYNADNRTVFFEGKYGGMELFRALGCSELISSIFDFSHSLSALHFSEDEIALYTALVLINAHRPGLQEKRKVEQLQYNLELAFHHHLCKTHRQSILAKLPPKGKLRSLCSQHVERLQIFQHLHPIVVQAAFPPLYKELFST
The experiment in a line: General RORγ Gal4 reporter assay (inverse agonist activity, inhibition of luminescence). It counts as cell-based. As to conditions: Gal4-luciferase reporter in Jurkat cells stably over-expressing hRORγ LBD; overnight incubation; 40 μM to 0.67 nM. The procedure: General RORγ Gal4 Reporter Assay Inverse agonist activity of potential ligands to RORγ was measured by inhibition of luminescence in a Gal4-luciferase reporter assay in Jurkat cells.
The following day, cells were lysed with 10 μL of Steady-Glo Luciferase Assay System (Promega Cat. No. EZ550), and analyzed immediately. IC50 values were determined.
For orientation: Reporter assays use an easily measured gene product as a stand-in for the process of interest.

By IC50 is commonly meant the midpoint of a concentration-inhibition curve. A lower IC50 goes with greater potency in that assay. `CC(C)(O)CN1C(=O)[C@H](F)C[C@@H]1C(=O)N1CCC2(S(=O)(=O)c3ccc(F)cc3)c3cnc(C(F)(C(F)(F)F)C(F)(F)F)cc3CCC12` (stereo partly shown) [Example 45]: the IC50 worked out at 528 nM. In other words, the sub-micromolar range.

`CC(C)(O)CN1C(=O)[C@H](F)C[C@@H]1C(=O)N1CCC2(S(=O)(=O)c3cccc(F)c3)c3ccc(C(F)(C(F)(F)F)C(F)(F)F)nc3CCC12` (stereo partly shown) [Example 46] registered an IC50 of 410 nM.

The compound `CC(C)(O)CN1C(=O)[C@H](F)C[C@H]1C(=O)N1CCC2(S(=O)(=O)c3ccc(F)cc3)c3cnc(C(F)(C(F)(F)F)C(F)(F)F)cc3CCC12` (stereo partly shown) [Example 47] displayed an IC50 of 29 nM.

`CC(C)(O)CN1C(=O)[C@H](F)C[C@H]1C(=O)N1CCC2(S(=O)(=O)c3cccc(F)c3)c3ccc(C(F)(C(F)(F)F)C(F)(F)F)nc3CCC12` (stereo partly shown) [Example 48] displayed an IC50 of 26 nM. This IC50 and that of the compound before are within 1.5-fold of each other.

In turn, `CC(C)(O)CN1C(=O)[C@@H]2C[C@@H]2[C@H]1C(=O)N1CCC2(S(=O)(=O)c3cccc(F)c3)c3ccc(C(F)(C(F)(F)F)C(F)(F)F)nc3CCC12` (stereo partly shown) [Example 49] had an IC50 of 18 nM. The IC50 values of the last two compounds are within 1.5-fold of each other.

Compound `CC(C)(O)CN1C(=O)[C@H](F)C[C@H]1C(=O)N1CCC2(S(=O)(=O)c3cccc(F)c3)c3cnc(C(F)(C(F)(F)F)C(F)(F)F)cc3CCC12` (stereo partly shown) [Example 50] registered an IC50 of 14 nM. The IC50 values of the last two compounds are within 1.5-fold of each other.

`CC(C)(O)CN1C(=O)[C@@H]2C[C@@H]2[C@H]1C(=O)N1CCC2(S(=O)(=O)c3cccc(F)c3)c3cnc(C(F)(C(F)(F)F)C(F)(F)F)cc3CCC12` (stereo partly shown) [Example 52]: the IC50 amounted to 1810 nM.

Turning to `CC(C)(O)CN1C(=O)[C@H](F)C[C@H]1C(=O)N1CCC2(S(=O)(=O)c3ccccc3)c3ccc(C(F)(C(F)(F)F)C(F)(F)F)nc3CCC12` (stereo partly shown) [Example 53], the IC50 was found to be 18 nM.

With `CC(C)(O)CN1C(=O)CCN1C(=O)N1CCC2(S(=O)(=O)c3ccc(F)cc3)c3cnc(C(F)(C(F)(F)F)C(F)(F)F)cc3CCC12` (stereo not shown) [Example 55], the IC50 came out at 31 nM. This IC50 lies about 1.7-fold higher than the previous one.

Regarding `CC(C)(O)CN1C(=O)CCN1C(=O)N1CCC2(S(=O)(=O)c3cccc(F)c3)c3ccc(C(F)(C(F)(F)F)C(F)(F)F)nc3CCC12` (stereo not shown) [Example 56], the IC50 was 28 nM.

In turn, `CC(C)(O)CN1C(=O)CCN1C(=O)N1CCC2(S(=O)(=O)c3cccc(F)c3)c3cnc(C(F)(C(F)(F)F)C(F)(F)F)cc3CCC12` (stereo not shown) [Example 57] yielded an IC50 of 21 nM.

In turn, `CC(C)(O)CN1C(=O)CCN1C(=O)N1CCC2(S(=O)(=O)c3ccccc3)c3ccc(C(F)(C(F)(F)F)C(F)(F)F)nc3CCC12` (stereo not shown) [Example 58] had an IC50 of 12 nM.

`[2H]C([2H])([2H])N1C(=O)[C@H](F)C[C@H]1C(=O)N1CCC2(S(=O)(=O)c3cccc(F)c3)c3ccc(C(F)(C(F)(F)F)C(F)(F)F)nc3CCC12` (stereo partly shown) [Example 63] displayed an IC50 of 13 nM.

In turn, `[2H]C([2H])([2H])N1C(=O)[C@H](F)C[C@H]1C(=O)N1CCC2(S(=O)(=O)c3ccc(F)cc3)c3ccc(C(F)(C(F)(F)F)C(F)(F)F)nc3CCC12` (stereo partly shown) [Example 64] had a half-inhibitory concentration (IC50) of 24 nM.

For `[2H]C([2H])([2H])N1C(=O)[C@H](F)C[C@H]1C(=O)N1CCC2(S(=O)(=O)c3cccc(F)c3)c3cnc(C(F)(C(F)(F)F)C(F)(F)F)cc3CCC12` (stereo partly shown) [Example 65], the IC50 is 91 nM.

Turning to `[2H]C([2H])([2H])N1C(=O)[C@H](F)C[C@H]1C(=O)N1CCC2(S(=O)(=O)c3ccccc3)c3ccc(C(F)(C(F)(F)F)C(F)(F)F)nc3CCC12` (stereo partly shown) [Example 66], the IC50 was determined as 31 nM.

These data come from patent publication US10934286B2, “Heterocyclic sulfones as ROR gamma modulators” (BRISTOL-MYERS SQUIBB COMPANY, priority 2016, dated 2021).
